Data reported in patent US9474790B2, “Stable, protracted GLP-1/glucagon receptor co-agonists for medical use” (Novo Nordisk A/S, priority 2013, dated 2016).
Numbered stars: 1 amine (or outer) side, 2 acyl side, 3 side chain; on linkers, the order of the positions; unused ones are H or OH. Square brackets hold non-standard residues; d marks the D form. Side chains are listed from the residue outwards. Peptide text beside a SMILES is read from it. * marks the point of attachment. C18 diacid = O=C(O)CCCCCCCCCCCCCCCCC(=O)*; γGlu = O=C(O)[C@H](CCC(=O)[*:2])N[*:1]; AEEA = NCCOCCOCC(=O)O; Aib = CC(C)(N)C(=O)O

These molecules were tested against T1, human glucagon receptor (Homo sapiens, UniProt P47871) (assay: Glucagon receptor binding, 125I-glucagon displacement SPA on isolated membranes). Details: displacement of 125I-glucagon from membranes; read-out: IC50 GlucR.
T1 construct: expressed in transfected cells; host or cells: BHK cells (parent BHK570, CRE luciferase clone BHK/KZ10-20-48), clone pLJ6'-4-25
T1 sequence (P47871 26-477): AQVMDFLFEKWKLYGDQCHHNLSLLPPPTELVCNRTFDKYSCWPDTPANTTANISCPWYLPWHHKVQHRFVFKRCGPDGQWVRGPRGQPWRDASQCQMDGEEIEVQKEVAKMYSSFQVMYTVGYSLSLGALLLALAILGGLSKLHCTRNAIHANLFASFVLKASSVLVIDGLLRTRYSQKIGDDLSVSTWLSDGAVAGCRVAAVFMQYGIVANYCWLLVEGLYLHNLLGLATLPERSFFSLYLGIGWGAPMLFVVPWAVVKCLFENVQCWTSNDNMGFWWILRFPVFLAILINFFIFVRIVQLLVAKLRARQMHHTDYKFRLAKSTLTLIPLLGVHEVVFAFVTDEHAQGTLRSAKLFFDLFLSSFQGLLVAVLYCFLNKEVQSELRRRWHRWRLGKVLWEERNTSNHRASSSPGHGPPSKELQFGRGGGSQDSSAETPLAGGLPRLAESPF
Procedure: The purpose of this assay was to test the in vitro receptor binding activity (i.e. affinity) of the glucagon derivatives of the invention. The receptor binding activity is a measure of affinity of a derivative for the human glucagon receptor.
The receptor binding of each compound to the human glucagon receptor was measured in a displacement binding assay. In this type of assay a labelled ligand (in this case 125I-glucagon) is bound to the receptor. Each derivative was added in a series of concentrations to isolated membranes containing the human glucagon receptor and displacement of the labelled ligand is monitored. The receptor binding was reported as the concentration at which half of the labelled ligand is displaced from the receptor, the IC50 value.
In order to test the binding of the derivatives to albumin, the assay may be performed in a very low concentration of serum albumin (max. 0.001% final assay concentration) as well as in the presence of a higher concentration of serum albumin (0.2% final assay concentration). An increase of the IC50 value, in the presence of serum albumin indicates an affinity to serum albumin and represents a method to predict a protracted pharmacokinetic profile of the test substance in animal models.
The following chemicals were used in the assay: DMEM w Glutamax (Gibco 61965-026), Pen/strep (Invitrogen 15140-122), G418 (Invitrogen 10131-027), Versene (Gibco 15040), 1 M Hepes (Gibco 15630), PBS (Invitrogen 14190-094), fetal calf serum (Invitrogen 16140-071), MgCl2 (Merck 1.05832.1000), EDTA (Invitrogen 15575-038), CaCl2 (Sigma, C5080), Tween 20 (Amresco 0850C335), ovalbumin (Sigma A5503), SPA particles (wheat germ agglutinin (WGA) SPA beads, Perkin Elmer RPNQ0001), [125I]-glucagon (produced in-house), OptiPlate™-96 (Packard 6005290).
HME buffer consisted of 25 mM HEPES, 2 mM MgCl2 and 1 mM EDTA, and pH was adjusted to 7.4. Assay buffer consisted of 50 mM HEPES supplemented with 5 mM MgCl2, 1 mM CaCl2, 0.02% Tween 20 and 0.1% Ovalbumin, and pH was adjusted to 7.4.
The cells used in this assay (clone BHK hGCGR A3*25) were BHK cells stable transfected with an expression plasmid containing the cDNA encoding the human glucagon receptor.
The cells were grown at 5% CO2 in DMEM, 10% fetal calf serum, 1% Pen/Strep (Penicillin/Streptomycin) and 1.0 mg/ml of the selection marker G418. To make a membrane preparation the cells were grown to approximately 80% confluence. The cells were washed twice in phosphate-buffered saline and harvested. The cells were pelleted using a brief centrifugation and the cell pellet was kept on ice. Lyse the cells by adding approx. 5 ml HME buffer, mix by pipetting and snap freeze in liquid nitrogen. Thaw quickly and add HME buffer to 10 ml. The cell pellet was homogenised with an ULTRA-THURRAX dispersing instrument for 20-30 sec. The homogenate was centrifuged at 20.000×G, 4° C. for 10 min. The pellet was re-suspended (homogenised) in 1-2 ml HME buffer. The protein concentration was determined. The membranes were aliquoted and snap-frozen in liquid nitrogen and stored at minus 80° C.
1. For the receptor binding assay, 50 μl of the assay buffer was added to each well of an assay plate.
2. Test compounds were serially diluted to give the following concentrations: 8×10EE-7 M, 8×10EE-8 M, 8×10EE-9 M, 8×10EE-10 M, 8×10EE-11 M, 8×10EE-12 M and 8×10EE-13 M. Twenty-five μl were added to appropriate wells in the assay plate.
3. Cell membrane aliquots were thawed and diluted to their working concentration. Fifty μl were added to each well in the assay plate.
4. WGA SPA beads were suspended in assay buffer at 20 mg/ml. The suspension was diluted to 10 mg/ml in assay buffer just prior to addition to the assay plate. Fifty μl were added to each well in the assay plate.
5. The incubation was started by adding 25 μl of 480 pM solution of [125I]-glucagon to each well of the assay plate. A 25 μl aliquot was reserved for measuring total counts/well.
6. The assay plate was incubated for 2 h at 25° C.
7. […]

IC50 | Compound
6.7 nM | CC(C)C[C@H](NC(=O)[C@H](Cc1ccc(O)cc1)NC(=O)[C@H](CCCCN)NC(=O)[C@H](CO)NC(=O)[C@H](CC(C)C)NC(=O)[C@H](CC(=O)O)NC(=O)[C@H](CO)NC(=O)[C@@H](NC(=O)[C@H](Cc1ccccc1)NC(=O)[C@@H](NC(=O)CNC(=O)[C@H](CCC(N)=O)NC(=O)C(C)(C)NC(=O)[C@@H](N)Cc1c[nH]cn1)[C@@H](C)O)[C@@H](C)O)C(=O)N[C@@H](CCC(=O)O)C(=O)N[C@@H](CO)C(=O)N[C@@H](CCCNC(=N)N)C(=O)N[C@@H](CCCNC(=N)N)C(=O)N[C@@H](C)C(=O)N[C@@H](CCCNC(=N)N)C(=O)N[C@@H](CCC(=O)O)C(=O)N[C@@H](Cc1ccccc1)C(=O)N[C@H](C(=O)N[C@@H](CCC(N)=O)C(=O)N[C@@H](Cc1c[nH]c2ccccc12)C(=O)N[C@@H](CC(C)C)C(=O)N[C@@H](CC(C)C)C(=O)N[C@@H](CCCCNC(=O)CC[C@H](NC(=O)COCCOCCNC(=O)COCCOCCNC(=O)CC[C@H](NC(=O)CC[C@H](NC(=O)CCCCCCCCCCCCCCCCC(=O)O)C(=O)O)C(=O)O)C(=O)O)C(=O)N[C@H](C(N)=O)[C@@H](C)O)C(C)C [Example 20, N^ε29-[(4S)-4-carboxy-4-[[2-[2-[2-[[2-[2-[2-[[(4S)-4-carboxy-4-[[(4S)-4-carboxy-4-(17-carboxyheptadecanoylamino)butanoyl]amino]butanoyl]amino]ethoxy]ethoxy]acetyl]amino]ethoxy]ethoxy]acetyl]amino]butanoyl]-[Aib2,Leu10,Glu15,Arg20,Glu21,Leu27,Lys28]-Glucagon amide] (H-H[Aib]QGTFTSDLSKYLESRRAREFVQWLLK([γGlu-AEEA-AEEA-γGlu-γGlu-C18 diacid])T-NH2; N-terminus assumed)
6.4 nM | CC(C)C[C@H](NC(=O)[C@H](Cc1ccc(O)cc1)NC(=O)[C@H](CCCCN)NC(=O)[C@H](CO)NC(=O)[C@H](CC(C)C)NC(=O)[C@H](CC(=O)O)NC(=O)[C@H](CO)NC(=O)[C@@H](NC(=O)[C@H](Cc1ccccc1)NC(=O)[C@@H](NC(=O)CNC(=O)[C@H](CCC(N)=O)NC(=O)C(C)(C)NC(=O)[C@@H](N)Cc1c[nH]cn1)[C@@H](C)O)[C@@H](C)O)C(=O)N[C@@H](CCC(=O)O)C(=O)N[C@@H](CO)C(=O)N[C@@H](CCCNC(=N)N)C(=O)N[C@@H](CCCNC(=N)N)C(=O)N[C@@H](C)C(=O)N[C@@H](CCCNC(=N)N)C(=O)N[C@@H](CCC(=O)O)C(=O)N[C@@H](Cc1ccccc1)C(=O)N[C@H](C(=O)N[C@@H](CCC(N)=O)C(=O)N[C@@H](Cc1c[nH]c2ccccc12)C(=O)N[C@@H](CC(C)C)C(=O)N[C@@H](CC(C)C)C(=O)N[C@@H](CCCCNC(=O)CC[C@H](NC(=O)CC[C@H](NC(=O)COCCOCCNC(=O)COCCOCCNC(=O)CC[C@H](NC(=O)CCCCCCCCCCCCCCCCC(=O)O)C(=O)O)C(=O)O)C(=O)O)C(=O)N[C@H](C(N)=O)[C@@H](C)O)C(C)C [Example 23, N^ε28-[(4S)-4-carboxy-4-[[(4S)-4-carboxy-4-[[2-[2-[2-[[2-[2-[2-[[(4S)-4-carboxy-4-(17-carboxyheptadecanoylamino)butanoyl]amino]ethoxy]ethoxy]acetyl]amino]ethoxy]ethoxy]acetyl]amino]butanoyl]amino]butanoyl]-[Aib2,Leu10,Glu15,Arg20,Glu21,Leu27,Lys28]-Glucagon amide] (H-H[Aib]QGTFTSDLSKYLESRRAREFVQWLLK([γGlu-γGlu-AEEA-AEEA-γGlu-C18 diacid])T-NH2; N-terminus assumed)
0.7 nM | CC(C)C[C@H](NC(=O)[C@H](Cc1ccc(O)cc1)NC(=O)[C@H](CCCCN)NC(=O)[C@H](CO)NC(=O)[C@H](CC(C)C)NC(=O)[C@H](CC(=O)O)NC(=O)[C@H](CO)NC(=O)[C@@H](NC(=O)[C@H](Cc1ccccc1)NC(=O)[C@@H](NC(=O)CNC(=O)[C@H](Cc1c[nH]cn1)NC(=O)C(C)(C)NC(=O)[C@@H](N)Cc1c[nH]cn1)[C@@H](C)O)[C@@H](C)O)C(=O)N[C@@H](CCC(=O)O)C(=O)N[C@@H](CO)C(=O)N[C@@H](CCCCN)C(=O)N[C@@H](CCCNC(=N)N)C(=O)N[C@@H](C)C(=O)N[C@@H](CCCNC(=N)N)C(=O)N[C@@H](CCC(=O)O)C(=O)N[C@@H](Cc1ccccc1)C(=O)N[C@H](C(=O)N[C@@H](CCC(N)=O)C(=O)N[C@@H](Cc1c[nH]c2ccccc12)C(=O)N[C@@H](CC(C)C)C(=O)N[C@@H](CC(C)C)C(=O)N[C@@H](CCCCNC(=O)CC[C@H](NC(=O)CC[C@H](NC(=O)COCCOCCNC(=O)COCCOCCNC(=O)CC[C@H](NC(=O)CCCCCCCCCCCCCCCCC(=O)O)C(=O)O)C(=O)O)C(=O)O)C(=O)N[C@H](C(N)=O)[C@@H](C)O)C(C)C [Example 27, N^ε28-[(4S)-4-carboxy-4-[[(4S)-4-carboxy-4-[[2-[2-[2-[[2-[2-[2-[[(4S)-4-carboxy-4-(17-carboxyheptadecanoylamino)butanoyl]amino]ethoxy]ethoxy]acetyl]amino]ethoxy]ethoxy]acetyl]amino]butanoyl]amino]butanoyl]-[Aib2,His3,Leu10,Glu15,Lys17,Arg20,Glu21,Leu27, Lys28]-Glucagon amide] (H-H[Aib]HGTFTSDLSKYLESKRAREFVQWLLK([γGlu-γGlu-AEEA-AEEA-γGlu-C18 diacid])T-NH2; N-terminus assumed)

Compound | IC50
CC(C)C[C@H](NC(=O)[C@H](CC(=O)O)NC(=O)[C@H](CC(C)C)NC(=O)[C@H](Cc1ccc(O)cc1)NC(=O)[C@H](CCCCN)NC(=O)[C@H](CO)NC(=O)[C@H](CC(C)C)NC(=O)[C@H](CC(=O)O)NC(=O)[C@H](CO)NC(=O)[C@@H](NC(=O)[C@H](Cc1ccccc1)NC(=O)[C@@H](NC(=O)CNC(=O)[C@H](CCC(N)=O)NC(=O)C(C)(C)NC(=O)[C@@H](N)Cc1c[nH]cn1)[C@@H](C)O)[C@@H](C)O)C(=O)N[C@@H](CCCCN)C(=O)N[C@@H](CCCNC(=N)N)C(=O)N[C@@H](C)C(=O)N[C@@H](CCCNC(=N)N)C(=O)N[C@@H](CCC(=O)O)C(=O)N[C@@H](Cc1ccccc1)C(=O)N[C@H](C(=O)N[C@@H](CCC(N)=O)C(=O)N[C@@H](Cc1c[nH]c2ccccc12)C(=O)N[C@@H](CC(C)C)C(=O)N[C@@H](CC(C)C)C(=O)N[C@@H](CCCCNC(=O)CC[C@H](NC(=O)CC[C@H](NC(=O)COCCOCCNC(=O)COCCOCCNC(=O)CC[C@H](NC(=O)CCCCCCCCCCCCCCCCC(=O)O)C(=O)O)C(=O)O)C(=O)O)C(=O)N[C@H](C(N)=O)[C@@H](C)O)C(C)C [Example 26, N^ε28-[(4S)-4-carboxy-4-[[(4S)-4-carboxy-4-[[2-[2-[2-[[2-[2-[2-[[(4S)-4-carboxy-4-(17-carboxyheptadecanoylamino)butanoyl]amino]ethoxy]ethoxy]-acetyl]amino]ethoxy]ethoxy]acetyl]amino]butanoyl]amino]butanoyl]-[Aib2,Leu10,Leu16,Lys17,Arg20,Glu21, Leu27,Lys28]-Glucagon amide] (H-H[Aib]QGTFTSDLSKYLDLKRAREFVQWLLK([γGlu-γGlu-AEEA-AEEA-γGlu-C18 diacid])T-NH2) | 4 nM
